Measured values taken from patent publication US4104390A, “Thieno [2,3-c] and [3,2-c] pyridines” (Parcor, priority 1976, dated 1978).
Read-outs that look alike come from different tables or passages of the source.

Columns and labels:
[1] = tested on: collagen-induced blood-platelet aggregation; experiment: Collagen-induced blood-platelet aggregation; assay type: in vivo, Wistar rats; conditions: rats, 100 mg/kg orally, 3 hours after treatment, collagen (bovine tendon extract), with respect to control group; for inhibition at 100 mg/kg: Rattus norvegicus, po, read-out: Percent inhibition of blood-platelet aggregation, Collagen
Experimental: (§1) Blood is taken from the jugular vein of Wistar rats. From this citrated blood, and after centrifugation, is reconstituted a plasma containing 600,000 ± 20,000 blood-platelets per ml which is used in all aggregation determinations.
(§2) 0.4 ml plasma is placed in a siliconized tube provided with a magnet bar, also siliconized. The tube is introduced into an aggregometer coupled with an apparatus for recording optical density variations. When light transmission has reached a stable value, 0.5 ml of a solution containing 10 μM A.D.P. (Adenosine-Di-Phosphate) is introduced into the tube.
(§3) Blood-platelet aggregation causes an increase of light transmission followed by a decrease subsequent to the deaggregation phase.
(§4) The maximal optical density variation thus determined characterizes the intensity of the aggregation.
The A.D.P. solution is substituted with a collagen solution (bovine tendon extract).
(§5) Different groups of 20 rats are used, each group being orally administered a test derivative at a dosage of 100 mg/kg.

[2] = tested on: carrageenin-induced localized edema; experiment: Carrageenin-induced localized edema method; assay type: in vivo; conditions: rats, 100 mg/kg orally at -1, 0, 1 and 2.5 hours; for inhibition in vivo at 100 mg/kg: Rattus norvegicus, po
Experimental: (a) Carrageenin-induced localized edema method
0.1 ml of a 1% carrageenin solution is injected in the metatarsal flexor muscles of the right hind limb of rats at time 0. The animals of the treated group are additionally orally administered 100 mg/kg of the test derivative, respectively one hour prior to injection of the phlogogenic agent, simultaneously with said injection, and then 1 hour and 2.5 hours thereafter. The determinations effected by means of a ROCH micrometer at times 0, 1 hour, 2 hours, 3 hours and 5 hours after carrageenin administration make it possible to determine, as a function of time, the percent anti-inflammatory activity with respect to the reference group.

[3] = tested on: ovalbumen-induced systemic edema; experiment: Ovalbumen-induced systemic edema method; assay type: in vivo; conditions: rats, 100 mg/kg orally 1 hour before and with ovalbumen; for inhibition in vivo at 100 mg/kg: Rattus norvegicus, po
Experimental: (b) Ovalbumen-induced systemic edema method
Simultaneous injection of 1 ml ovalbumen and 0.5 ml of a 1% aqueous Evans Blue solution is effected in rats. On the other hand, the animals of the treated group are administered orally 100 mg/kg of the test derivative one hour prior to ovalbumen administration and simultaneously with said administration. The intensity of the phenomenon thus induced is scored according to a scale from 1 to 5 depending on the progress of the inflammatory syndrome. The mean intensity of the edem and the percent decrease of the edema reaction with respect to the control group are thus determined as a function of time.

[4] = tested on: A.D.P.-induced blood-platelet aggregation; experiment: A.D.P.-induced blood-platelet aggregation; assay type: in vivo, Wistar rats; conditions: rats, 100 mg/kg orally, 3 hours after treatment, 10 μM A.D.P. solution, with respect to control group; for inhibition at 100 mg/kg: Rattus norvegicus, po
Experimental: as §1, §2, §3, §4, §5

[5] = 1 hour after carrageenin, read-out: Percent anti-inflammatory activity after 1 hour
[6] = 2 hours after carrageenin, read-out: Percent anti-inflammatory activity after 2 hours
[7] = 3 hours after carrageenin, read-out: Percent anti-inflammatory activity after 3 hours
[8] = 5 hours after carrageenin, read-out: Percent anti-inflammatory activity after 5 hours
[9] = 2 hours after ovalbumen, read-out: Percent anti-inflammatory activity after 2 hours
[10] = 3 hours after ovalbumen, read-out: Percent anti-inflammatory activity after 3 hours
[11] = read-out: Percent inhibition of blood-platelet aggregation, A.D.P.

| SMILES | Percent inhibition of blood-platelet aggregation, Collagen [1] | Percent anti-inflammatory activity after 1 hour ([2]; 1 hour after carrageenin) | Percent anti-inflammatory activity after 2 hours ([2]; 2 hours after carrageenin) | Percent anti-inflammatory activity after 3 hours ([2]; 3 hours after carrageenin) | Percent anti-inflammatory activity after 5 hours ([2]; 5 hours after carrageenin) | Percent anti-inflammatory activity after 2 hours ([3]; 2 hours after ovalbumen) | Percent anti-inflammatory activity after 3 hours ([3]; 3 hours after ovalbumen) | Percent inhibition of blood-platelet aggregation, A.D.P. [4] | inhibition at 100 mg/kg [1] | inhibition in vivo at 100 mg/kg [2, 5] | inhibition in vivo at 100 mg/kg [2, 6] | inhibition in vivo at 100 mg/kg [2, 7] | inhibition in vivo at 100 mg/kg [2, 8] | inhibition in vivo at 100 mg/kg [3, 9] | inhibition in vivo at 100 mg/kg [3, 10] | inhibition at 100 mg/kg [4, 11] | inhibition at 100 mg/kg ([4]; 3 h, heading: Percent inhibition of blood-platelet aggregation) |
| --- | --- | --- | --- | --- | --- | --- | --- | --- | --- | --- | --- | --- | --- | --- | --- | --- | --- |
| Cc1ccc(N2Cc3sccc3C(c3ccccc3)C2)cc1 (stereo not drawn) [derivative n°18, 4-Phenyl-6-p.tolyl-4,5,6,7-tetrahydro-thieno[2,3-c]pyridine] | 93.5% | 40% | 48% | 53% | 56% | 47% | 56% | 62.5% |  |  |  |  |  |  |  |  |  |
| Cc1ccc(C2CN(Cc3ccccc3Cl)Cc3sccc32)cc1 (stereo not drawn) [derivative n°10, 6-o.Chlorobenzyl-4-p.tolyl-4,5,6,7-tetrahydrothieno[2,3-c]pyridine] |  |  |  |  |  |  |  |  | 96% | 38% | 45% | 48% | 52% | 53% | 60% | 65% |  |
| CC1NCc2ccsc2C1c1ccccc1 (stereo not drawn) [derivative n°2, 6-Methyl-7-phenyl-4,5,6,7-tetrahydro-thieno[3,2-c]pyridine] |  |  |  |  |  |  |  |  | 92.7% | 42% | 48% | 51% | 54% | 42% | 50% |  | 62.4% |
| O=C(O)c1ccccc1CN1Cc2sccc2C(c2ccccc2)C1 (stereo not drawn) [derivative n°16, 6-o.Carboxybenzyl-4-phenyl-4,5,6,7-tetrahydro-thieno[2,3-c]pyridine] |  |  |  |  |  |  |  |  | 94.1% | 39% | 45% | 50% | 52% | 49% | 56% | 63.2% |  |
| Clc1ccccc1CN1Cc2ccsc2C(c2ccccc2)C1 (stereo not drawn) [derivative n°19, 5-o.Chlorobenzyl-7-phenyl-4,5,6,7-tetrahydro-thieno[3,2-c]pyridine] |  |  |  |  |  |  |  |  | 93.7% | 47% | 53% | 54% | 56% | 49% | 57% | 62.3% |  |
| CC1C(c2ccccc2)c2sccc2CN1Cc1ccccc1Cl (stereo not drawn) [derivative n°23, 5-o.Chlorobenzyl-6-methyl-7-phenyl-4,5,6,7-tetrahydro-thieno[3,2-c]pyridine] |  |  |  |  |  |  |  |  | 94.5% | 39% | 44% | 48% | 52% | 47% | 54% | 64.8% |  |
| COc1ccc(CN2Cc3ccsc3C(c3ccccc3)C2)cc1 (stereo not drawn) [derivative n°27, 5-p.Methoxybenzyl-7-phenyl-4,5,6,7-tetrahydro-thieno[3,2-c]pyridine] |  |  |  |  |  |  |  |  | 92.4% | 38% | 45% | 49% | 52% | 51% | 56% | 63% |  |
| c1ccc(C2CNCc3ccsc32)cc1 (stereo not drawn) [derivative n°4, 7-Phenyl-4,5,6,7-tetrahydro-thieno[3,2-c]pyridine] |  |  |  |  |  |  |  |  | 95% | 38% | 44% | 49% | 53% | 54% | 62% | 64% |  |
| c1ccc(CN2Cc3sccc3C(c3ccccc3)C2)cc1 (stereo not drawn) [derivative n°12, 6-Benzyl-4-phenyl-4,5,6,7-tetrahydro-thieno[2,3-c]pyridine] |  |  |  |  |  |  |  |  | 93.3% | 47% | 53% | 57% | 60% | 47% | 55% | 63.7% |  |
| c1ccc(CCN2Cc3ccsc3C(c3ccccc3)C2)cc1 (stereo not drawn) [derivative n°20, 5-Phenethyl-7-phenyl-4,5,6,7-tetrahydro-thieno[3,2-c]pyridine] |  |  |  |  |  |  |  |  | 94.2% | 43% | 48% | 52% | 55% | 53% | 61% | 63.6% |  |
| c1ccc(CCN2Cc3sccc3C(c3ccccc3)C2)cc1 (stereo not drawn) [derivative n°25, 6-Phenethyl-4-phenyl-4,5,6,7-tetrahydro-thieno[2,3-c]pyridine] |  |  |  |  |  |  |  |  | 93.8% | 47% | 52% | 56% | 60% | 44% | 51% | 64.1% |  |
| N#Cc1ccccc1CN1Cc2ccsc2C(c2ccccc2)C1 (stereo not drawn) [derivative n°26] |  |  |  |  |  |  |  |  | 90.2% | 44% | 49% | 52% | 56% | 48% | 54% | 60.9% |  |
| COc1cc(CN2Cc3sccc3C(c3ccccc3)C2)cc(OC)c1OC (stereo not drawn) [derivative n°14, 4-Phenyl-6-(3,4,5-trimethoxy-benzyl)-4,5,6,7-tetrahydro-thieno[2,3-c]pyridine] |  |  |  |  |  |  |  |  | 93.9% | 37% | 44% | 49% | 54% | 43% | 52% | 64.1% |  |
| COC(=O)c1ccccc1CN1Cc2ccsc2C(c2ccccc2)C1 (stereo not drawn) [derivative n°28, 5-o.Methoxycarbonylbenzyl-7-phenyl-4,5,6,7-tetrahydro-thieno[3,2-c]pyridine] |  |  |  |  |  |  |  |  | 92.2% | 41% | 47% | 51% | 53% | 45% | 52% | 62.3% |  |
| CCCCN1Cc2ccsc2C(c2ccccc2)C1 (stereo not drawn) [derivative n°21, 5-Butyl-7-phenyl-4,5,6,7-tetrahydro-thieno[3,2-c]pyridine] |  |  |  |  |  |  |  |  | 94% | 38% | 44% | 46% | 49% | 51% | 57% | 62.2% |  |
